The test system of data set [1] is Mia-Paca2 (human pancreas cancer cells). The data set is described as follows: Antiproliferative activity, WST1 colorimetric test, Mia-PaCa2. Conditions: MIA PaCa-2, Mia-Paca2, treated 96 hours, up to 10 μM, read-out: IC50 on the cell proliferation of the Mia-Paca2 lines. The class given is cell-based. Here is the method: (§1) iii) Characterization of the Antiproliferative Activity:
(§2) By way of example, the effect of a treatment on two human cell lines Mia-Paca2 and DU145 by the compounds of the examples described previously will be studied. The cell lines DU145 (human prostate cancer cells) and Mia-PaCa2 (human pancreas cancer cells) were acquired from the American Tissue Culture Collection (Rockville, Md., USA). The cells placed in 80 μl of Dulbecco's Modified Eagle's medium (Gibco-Brl, Cergy-Pontoise, France) completed with 10% foetal calf serum inactivated by heating (Gibco-Brl, Cergy-Pontoise, France), 50,000 units/l of penicillin and 50 mg/l of streptomycin (Gibco-Brl, 10378-057, Cergy-Pontoise, France), and 2 mM of glutamine (Gibco-Brl, Cergy-Pontoise, France) were seeded on a 96-well plate on day 0. The cells were treated on day 1 for 96 hours with increasing concentrations of each of the compounds to be tested up to 10 μM. At the end of this period, quantification of cell proliferation is evaluated by a colorimetric test based on the cleavage of the tetrazolium salt WST1 by the mitochondrial dehydrogenases in viable cells leading to the formation of formazan (Boehringer Mannheim, Meylan, France). These tests are carried out in duplicate with 8 determinations per concentration tested. For each compound to be tested, the values included in the linear part of the sigmoid were retained for a linear regression analysis and used to estimate the inhibitory concentration IC50. The products are solubilized in dimethylsulphoxide (DMSO) at 10^−2 M and finally used in culture with 0.1% DMSO.

Data set [2] relates to DU145 (human prostate cancer cells). The data set is described as follows: Antiproliferative activity, WST1 colorimetric test, DU145. In kind it is cell-based. Conditions: DU-145, treated 96 hours, up to 10 μM, read-out: IC50 on the cell proliferation of the DU-145 lines. The protocol: as §1, §2
A general note: Tetrazolium assays rely on reduction of a dye to a coloured formazan, in cell work by metabolically active cells.

These results are taken from patent US7335674B2, “Benzothiazole-4,7-diones and benzoxazole-4,7-diones with substituents in position 5 or 6 and method for production thereof” (Societe de Conseils de Recherches et d'Applications …, priority 2003, dated 2008).

By melting point is commonly meant the temperature of the solid-liquid transition. Take `O=C1C(NCCN2CCCC2)=CC(=O)c2oc(-c3cc(F)c(F)c(F)c3)nc21` [Example 26, 5-[(2-pyrrolidin-1-ylethyl)amino]-2-(3,4,5-trifluorophenyl)-1,3-benzoxazole-4,7-dione]: the melting point lay in the range of 193 to 194 °C. Besides, the IC50 in data set [1] was ≤ 10 µM. In addition, the IC50 in data set [2] was ≤ 10 µM.

Consider `O=C1C=C(NCCN2CCCC2)C(=O)c2oc(-c3ccc4c(c3)OCO4)nc21` [Example 59, 2-(1,3-benzodioxol-5-yl)-6-[(2-pyrrolidin-1-ylethyl)amino]-1,3-benzoxazole4,7-dione], for which the melting point was in the range of 171 to 172 °C. Also, in data set [1], the IC50 is ≤ 10 µM. Moreover, the IC50 in data set [2] is ≤ 10 µM.

Compound `O=C1C=C(NCCN2CCCC2)C(=O)c2oc(-c3cccc(Cl)c3)nc21` [Example 47, 2-(3-chlorophenyl)-6-[(2-pyrrolidin-1-ylethyl)amino]-1,3-benzoxazole4,7-dione] had a melting point of 161 to 162 °C. For the same compound, the IC50 in data set [1] was ≤ 10 µM. The IC50 in data set [2] is ≤ 10 µM.

Take `CN(C)CCNC1=CC(=O)c2nc(-c3ccc(F)cc3)sc2C1=O` [Example 8, 6-{[2-(dimethylamino)ethyl]amino}-2-(4-fluorophenyl)-1,3-benzothiazole4,7-dione]: the melting point was in the range of 246 to 247 °C. Moreover, in data set [1], the IC50 is ≤ 10 µM. Moreover, the IC50 in data set [2] was ≤ 10 µM.

For the compound `O=C1C=C(NCCN2CCCC2)C(=O)c2oc(-c3ccc(F)cc3)nc21` [Example 50, 2-(4-fluorophenyl)-6-[(2-pyrrolidin-1-ylethyl)amino]-1,3-benzoxazole-4,7-dione], the melting point was in the range of 170 to 171 °C. For the same compound, in data set [1], the IC50 is ≤ 10 µM. For the same compound, the IC50 in data set [2] is ≤ 10 µM.

For the compound `CN(C)CCNC1=CC(=O)c2oc(Cc3ccccc3)nc2C1=O` [Example 23, 2-benzyl-5-{[2-(dimethylamino)ethyl]amino}-1,3-benzoxazole-4,7-dione], the melting point was in the range of 135 to 136 °C. Moreover, in data set [1], the IC50 is ≤ 10 µM. The IC50 in data set [2] is ≤ 10 µM.

On to `CN(C)CCNC1=CC(=O)c2oc(-c3cc(F)cc(F)c3)nc2C1=O` [Example 19, 2-(3,5-difluorophenyl)-5-{[2-(dimethylamino)ethyl]amino}-1,3-benzoxazole-4,7-dione], for which the melting point lay in the range of 187 to 188 °C. Besides, in data set [1], the IC50 is ≤ 10 µM. Besides, in data set [2], the IC50 was ≤ 10 µM.

`CN(C)CCNC1=CC(=O)c2oc(-c3cccc(F)c3F)nc2C1=O` [Example 20, 2-(2,3-difluorophenyl)-5-{[2-(dimethylamino)ethyl]amino}-1,3-benzoxazole-4,7-dione] gave a melting point of 178 to 179 °C. The IC50 in data set [1] was ≤ 10 µM. Besides, the IC50 in data set [2] is ≤ 10 µM.

With `O=C1C=C(NCCN2CCCC2)C(=O)c2oc(-c3cc(Br)cc(Br)c3)nc21` [Example 49, 2-(3,5-dibromophenyl)-6-[(2-pyrrolidin-1-ylethyl)amino]-1,3-benzoxazole-4,7-dione], the melting point was in the range of 202 to 203 °C. Further, the IC50 in data set [1] is ≤ 10 µM. Further, the IC50 in data set [2] was ≤ 10 µM.

`CN(C)CCNC1=CC(=O)c2oc(-c3cc(F)ccc3F)nc2C1=O` [Example 15, 2-(2,5-difluorophenyl)-5-{[2-(dimethylamino)ethyl]amino}-1,3-benzoxazole-4,7-dione]: the melting point lay in the range of 181 to 182 °C. Further, the IC50 in data set [1] was ≤ 10 µM. Also, the IC50 in data set [2] was ≤ 10 µM.

`CN(C)CCNC1=CC(=O)c2nc(-c3cccc(F)c3F)oc2C1=O` [Example 35, 2-(2,3-difluorophenyl)-6-{[2-(dimethylamino)ethyl]amino}-1,3-benzoxazole-4,7-dione]: the melting point was in the range of 178 to 179 °C. Besides, the IC50 in data set [1] is ≤ 10 µM. Also, in data set [2], the IC50 is ≤ 10 µM.

Turning to `Cc1cc(-c2nc3c(o2)C(=O)C(NCCN2CCCC2)=CC3=O)ccc1Br` [Example 53, 2-(4-bromo-3-methylphenyl)-6-[(2-pyrrolidin-1-ylethyl)amino]-1,3-benzoxazole-4,7-dione], the melting point lay within 171 to 172 °C. Besides, the IC50 in data set [1] is ≤ 10 µM. Also, in data set [2], the IC50 is ≤ 10 µM.

For `CCCCc1ccc(-c2nc3c(s2)C(=O)C(NCCN(C)C)=CC3=O)cc1` [Example 11, 2-(4-butylphenyl)-6-{[2-(dimethylamino)ethyl]amino}-1,3-benzothiazole-4,7-dione], the melting point was in the range of 126 to 127 °C. Moreover, the IC50 in data set [1] is ≤ 10 µM. Also, the IC50 in data set [2] is ≤ 10 µM.

Compound `CCc1ccc(-c2nc3c(o2)C(=O)C=C(NCCN(C)C)C3=O)cc1` [Example 22, 5-{[2-(dimethylamino)ethyl]amino}-2-(4-ethylphenyl)-1,3-benzoxazole4,7-dione] yielded a melting point of 169 to 170 °C. In addition, the IC50 in data set [1] was ≤ 10 µM. Besides, in data set [2], the IC50 was ≤ 10 µM.

As for `CN(C)CCNC1=CC(=O)c2oc(-c3ccc(F)cc3)nc2C1=O` [Example 18, 5-{[2-(dimethylamino)ethyl]amino}-2-(4-fluorophenyl)-1,3-benzoxazole-4,7-dione], the melting point lay in the range of 181 to 182 °C. For the same compound, the IC50 in data set [1] was ≤ 10 µM. The IC50 in data set [2] is ≤ 10 µM.

`CN(C)CCNC1=CC(=O)c2nc(-c3cccc4ccccc34)sc2C1=O` [Example 9, 6-{[2-(dimethylamino)ethyl]amino}-2-(1-naphthyl)-1,3-benzothiazole-4,7-dione]: the melting point is 172 to 173 °C. For the same compound, in data set [1], the IC50 was ≤ 10 µM. The IC50 in data set [2] is ≤ 10 µM.

Regarding `CN(C)CCNC1=CC(=O)c2oc(-c3ccccc3Br)nc2C1=O` [Example 16, 2-(2-bromophenyl)-5-{[2-(dimethylamino)ethyl]amino}-1,3-benzoxazole4,7-dione], the melting point was 153 to 154 °C. Also, the IC50 in data set [1] was ≤ 10 µM. The IC50 in data set [2] is ≤ 10 µM.

Take `O=C1C=C(NCCN2CCCC2)C(=O)c2oc(-c3cccc(Br)c3)nc21` [Example 46, 2-(3-bromophenyl)-6-[(2-pyrrolidin-1-ylethyl)amino]-1,3-benzoxazole-4,7-dione]: the melting point fell in the range of 163 to 164 °C. Moreover, in data set [1], the IC50 is ≤ 10 µM. In addition, the IC50 in data set [2] is ≤ 10 µM.

Compound `CN(C)CCNC1=CC(=O)c2nc(-c3ccc(Br)cc3)oc2C1=O` [Example 31, 2-(4-bromophenyl)-6-{[2-(dimethylamino)ethyl]amino}-1,3-benzoxazole-4,7-dione] had a melting point of 181 to 182 °C. For the same compound, the IC50 in data set [1] is ≤ 10 µM. The IC50 in data set [2] was ≤ 10 µM.

For the compound `Cc1cc(-c2nc3c(o2)C(=O)C(NCCN(C)C)=CC3=O)ccc1Br` [Example 37, 2-(4-bromo-3-methylphenyl)-6-{[2-(dimethylamino)ethyl]amino}-1,3-benzoxazole-4,7-dione], the melting point was 165 to 166 °C. Moreover, the IC50 in data set [1] was ≤ 10 µM. In data set [2], the IC50 was ≤ 10 µM.

In turn, `CN(C)CCNC1=CC(=O)c2nc(-c3ccc(F)cc3)oc2C1=O` [Example 33, 6-{[2-(dimethylamino)ethyl]amino}-2-(4-fluorophenyl)-1,3-benzoxazole4,7-dione] yielded a melting point of 169 to 170 °C. Moreover, in data set [1], the IC50 was ≤ 10 µM. Also, the IC50 in data set [2] is ≤ 10 µM.

On to `CN(C)CCNC1=CC(=O)c2nc(-c3ccc(Br)cc3Cl)oc2C1=O` [Example 39, 2-(4-bromo-2-chlorophenyl)-6-{[2-(dimethylamino)ethyl]amino}-1,3-benzoxazole4,7-dione], for which the melting point fell in the range of 163 to 164 °C. Besides, the IC50 in data set [1] was ≤ 10 µM. Also, the IC50 in data set [2] is ≤ 10 µM.

Regarding `O=C1C=C(NCCN2CCCC2)C(=O)c2oc(-c3ccccc3Br)nc21` [Example 45, 2-(2-bromophenyl)-6-[(2-pyrrolidin-1-ylethyl)amino]-1,3-benzoxazole-4,7-dione], the melting point fell in the range of 123 to 124 °C. For the same compound, the IC50 in data set [1] was ≤ 10 µM. In data set [2], the IC50 was ≤ 10 µM.

`O=C1C(NCCN2CCCC2)=CC(=O)c2oc(-c3cc(F)cc(F)c3)nc21` [Example 25, 2-(3,5-difluorophenyl)-5-[(2-pyrrolidin-1-ylethyl)amino]-1,3-benzoxazole-4,7-dione] showed a melting point of 182 to 183 °C. The IC50 in data set [1] is ≤ 10 µM. Further, in data set [2], the IC50 was ≤ 10 µM.

Compound `CN(C)CCNC1=CC(=O)c2nc(-c3cc(F)c(F)c(F)c3)oc2C1=O` [Example 36, 6-{[2-(dimethylamino)ethyl]amino}-2-(3,4,5-trifluorophenyl)-1,3-benzoxazole4,7-dione] gave a melting point of 188 to 189 °C. In addition, the IC50 in data set [1] is ≤ 10 µM. The IC50 in data set [2] is ≤ 10 µM.

As to `CN(C)CCNC1=CC(=O)c2nc(-c3cc(Br)cc(Br)c3)oc2C1=O` [Example 32, 2-(3,5-dibromophenyl)-6-{[2-(dimethylamino)ethyl]amino}-1,3-benzoxazole-4,7-dione], the melting point fell in the range of 206 to 207 °C. In data set [1], the IC50 was ≤ 10 µM. In addition, the IC50 in data set [2] was ≤ 10 µM.
